Patent publication US20260265329A1, “POLYPEPTIDE AND DERIVATIVE THEREOF, COMPOSITION, AND USE THEREOF” (HANGZHOU SCIWIND BIOSCIENCES CO., LTD., priority 2023, published 2026)
pEC50: −log10 of the molar value. Starred links: 1 amine or outer side, 2 acyl side, 3 side chain; linkers in the order of their positions; H or OH if unused. Non-standard residues stand in square brackets, D forms with d. Residues, ends and D or L forms follow the SMILES beside them. *: point of attachment. C20 diacid = O=C(O)CCCCCCCCCCCCCCCCCCC(=O)*; γGlu = O=C(O)[C@H](CCC(=O)[*:2])N[*:1]; Hyp = O=C(O)[C@@H]1C[C@@H](O)CN1; NMeD = CN[C@@H](CC(=O)O)C(=O)O

Experiments:
[1] = molecular target: T1, human amylin receptors (Homo sapiens, UniProt O60896+P30988); assay: Luciferase assay in stably transfected amylin receptor/CRE-luc CHO cell line; type: cell-based; settings: for Relative activity: EC50 ratio of Cagrilintide to the compound, Cagrilintide 100%; for pEC50: amylin receptor/CRE-luc CHO cells, 24 hours incubation, luminescence
T1 construct: host or cells: CHO-K1/Ga15/AMY3 cells, further stably transfected with a CRE-luciferase plasmid
T1 sequence (P30988 25-474): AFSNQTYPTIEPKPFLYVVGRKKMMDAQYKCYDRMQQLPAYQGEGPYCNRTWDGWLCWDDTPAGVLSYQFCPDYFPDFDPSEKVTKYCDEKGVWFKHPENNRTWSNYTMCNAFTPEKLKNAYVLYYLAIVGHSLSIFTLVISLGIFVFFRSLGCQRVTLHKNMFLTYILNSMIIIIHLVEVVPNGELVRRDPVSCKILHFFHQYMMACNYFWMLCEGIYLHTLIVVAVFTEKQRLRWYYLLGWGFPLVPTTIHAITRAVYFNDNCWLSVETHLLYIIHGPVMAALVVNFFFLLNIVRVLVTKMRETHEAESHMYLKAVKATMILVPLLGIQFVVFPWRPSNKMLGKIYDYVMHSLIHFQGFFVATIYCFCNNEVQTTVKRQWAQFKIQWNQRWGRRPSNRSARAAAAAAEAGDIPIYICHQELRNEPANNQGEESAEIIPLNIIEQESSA
T1 sequence (O60896 24-148 partner): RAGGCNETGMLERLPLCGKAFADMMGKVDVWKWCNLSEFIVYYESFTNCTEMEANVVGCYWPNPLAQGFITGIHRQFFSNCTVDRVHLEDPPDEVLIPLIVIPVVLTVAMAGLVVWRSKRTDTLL

[2] = Heat accelerated stability assay, 40° C., detection on 10 d and 20 d; type: physicochemical; settings: 1 mg/mL, pH about 7.4, 40° C.
Experimental: The derivatives (1 mg/mL) were mixed with sodium dihydrogen phosphate (1.42 mg/mL) and dissolved in ultrapure water. After adjusting pH to about 7.4 with hydrochloric acid/sodium hydroxide, the solution was filtered into a sterilized vial in a clean bench using a 0.22 μm sterile filter. The vial was then capped and placed into the stability test chamber at 40° C. Detections were made on 10d and 20d, and during the assay changes in the characteristics and properties of the polypeptides were observed and recorded. The sample was then centrifuged for 3 min at 10000 rpm at 4° C., and the supernatant was transferred to a liquid phase sample vial for detecting the concentration and purity of the polypeptides using liquid phase chromatography described as below.
Flow rate: 1.0 mL/min; Autosampler temperature: 25° C.; Column temperature: 25° C.; Detection wavelength: 214 nm; Mobile phase A: 110 mM phosphate buffer (pH 5.8): ACN=90:10; Mobile phase B: ACN: IPA: H2O=85:5:10; and Gradient of elution listed in Table 6: […]

Row | Structure (SMILES) | Relative activity [1] [%] | pEC50 [1] | Reduction in purity, 10 d [2] [%] | Reduction in purity, 20 d [2] [%]
1 | CC[C@H](C)[C@H](NC(=O)[C@@H]1CCCN1C(=O)[C@H](CCCCN)NC(=O)[C@H](CC(C)C)NC(=O)[C@H](CC(N)=O)NC(=O)CNC(=O)[C@H](CO)NC(=O)[C@H](CO)NC(=O)[C@H](Cc1c[nH]cn1)NC(=O)[C@H](CCCNC(=N)N)NC(=O)[C@H](CC(C)C)NC(=O)[C@H](Cc1ccccc1)NC(=O)[C@H](CC(=O)O)NC(=O)[C@H](C)NC(=O)[C@H](CC(C)C)NC(=O)[C@H](CCCNC(=N)N)NC(=O)[C@H](CCC(N)=O)NC(=O)[C@@H](NC(=O)[C@H](C)NC(=O)[C@H](C)NC(=O)[C@@H](NC(=O)[C@H](CO)NC(=O)[C@H](CC(C)C)NC(=O)[C@H](CCC(N)=O)NC(=O)[C@H](CO)NC(=O)[C@H](C)NC(=O)CC[C@H](NC(=O)CCCCCCCCCCCCCCCCCCC(=O)O)C(=O)O)[C@@H](C)O)[C@@H](C)O)C(=O)N[C@@H](CC(C)C)C(=O)N1CCC[C@H]1C(=O)N1CCC[C@H]1C(=O)N[C@H](C(=O)N[C@@H](CC(N)=O)C(=O)N[C@H](C(=O)NCC(=O)N[C@@H](CO)C(=O)N[C@@H](CC(N)=O)C(=O)N[C@H](C(=O)N1C[C@H](O)C[C@H]1C(N)=O)[C@@H](C)O)C(C)C)[C@@H](C)O [M51] ({C20 diacid-γGlu}-ASQLSTAATQRLADFLRHSSGNLKPILPPTNVGSNT[Hyp]-NH2) | 163 | 10.10 | 23.4 | 35.42
2 | CC[C@H](C)[C@H](NC(=O)[C@@H]1CCCN1C(=O)[C@H](CCCCN)NC(=O)[C@H](CC(C)C)NC(=O)[C@H](CC(=O)O)N(C)C(=O)[C@H](CC(N)=O)NC(=O)[C@H](CO)NC(=O)[C@H](CO)NC(=O)[C@H](Cc1c[nH]cn1)NC(=O)[C@H](CCCNC(=N)N)NC(=O)[C@H](CC(C)C)NC(=O)[C@H](Cc1ccccc1)NC(=O)[C@H](CC(=O)O)NC(=O)[C@H](C)NC(=O)[C@H](CC(C)C)NC(=O)[C@H](CCCNC(=N)N)NC(=O)[C@H](CCC(N)=O)NC(=O)[C@@H](NC(=O)[C@H](C)NC(=O)[C@H](C)NC(=O)[C@@H](NC(=O)[C@H](CO)NC(=O)[C@H](CC(C)C)NC(=O)[C@H](CCC(N)=O)NC(=O)[C@H](CO)NC(=O)[C@H](C)NC(=O)CC[C@H](NC(=O)CCCCCCCCCCCCCCCCCCC(=O)O)C(=O)O)[C@@H](C)O)[C@@H](C)O)C(=O)N[C@@H](CC(C)C)C(=O)N1CCC[C@H]1C(=O)N1CCC[C@H]1C(=O)N[C@H](C(=O)N[C@@H](CC(N)=O)C(=O)N[C@H](C(=O)NCC(=O)N[C@@H](CO)C(=O)N[C@@H](CC(N)=O)C(=O)N[C@H](C(=O)N1C[C@H](O)C[C@H]1C(N)=O)[C@@H](C)O)C(C)C)[C@@H](C)O [M45] ({C20 diacid-γGlu}-ASQLSTAATQRLADFLRHSSN[NMeD]LKPILPPTNVGSNT[Hyp]-NH2) | 129 | 10.15 | 6.54 | –
3 | CC[C@H](C)[C@H](NC(=O)[C@@H]1CCCN1C(=O)[C@H](CCCCN)NC(=O)[C@H](CC(C)C)NC(=O)[C@H](CC(N)=O)NC(=O)[C@H](CCCNC(=N)N)NC(=O)[C@H](CO)NC(=O)[C@H](CO)NC(=O)[C@H](Cc1c[nH]cn1)NC(=O)[C@H](CCCNC(=N)N)NC(=O)[C@H](CC(C)C)NC(=O)[C@H](Cc1ccccc1)NC(=O)[C@H](CC(=O)O)NC(=O)[C@H](C)NC(=O)[C@H](CC(C)C)NC(=O)[C@H](CCCNC(=N)N)NC(=O)[C@H](CCC(N)=O)NC(=O)[C@@H](NC(=O)[C@H](C)NC(=O)[C@H](C)NC(=O)[C@@H](NC(=O)[C@H](CO)NC(=O)[C@H](CC(C)C)NC(=O)[C@H](CCC(N)=O)NC(=O)[C@H](CO)NC(=O)[C@H](C)NC(=O)CC[C@H](NC(=O)CCCCCCCCCCCCCCCCCCC(=O)O)C(=O)O)[C@@H](C)O)[C@@H](C)O)C(=O)N[C@@H](CC(C)C)C(=O)N1CCC[C@H]1C(=O)N1CCC[C@H]1C(=O)N[C@H](C(=O)N[C@@H](CC(N)=O)C(=O)N[C@H](C(=O)NCC(=O)N[C@@H](CO)C(=O)N[C@@H](CC(N)=O)C(=O)N[C@H](C(=O)N1C[C@H](O)C[C@H]1C(N)=O)[C@@H](C)O)C(C)C)[C@@H](C)O [M54] ({C20 diacid-γGlu}-ASQLSTAATQRLADFLRHSSRNLKPILPPTNVGSNT[Hyp]-NH2) | 267 | 10.22 | 11.67 | 20.56
4 | CC[C@H](C)[C@H](NC(=O)[C@@H]1CCCN1C(=O)[C@H](CCCCN)NC(=O)[C@H](CC(C)C)NC(=O)[C@H](CC(N)=O)NC(=O)[C@H](C)NC(=O)[C@H](CO)NC(=O)[C@H](CO)NC(=O)[C@H](Cc1c[nH]cn1)NC(=O)[C@H](CCCNC(=N)N)NC(=O)[C@H](CC(C)C)NC(=O)[C@H](Cc1ccccc1)NC(=O)[C@H](CC(=O)O)NC(=O)[C@H](C)NC(=O)[C@H](CC(C)C)NC(=O)[C@H](CCCNC(=N)N)NC(=O)[C@H](CCC(N)=O)NC(=O)[C@@H](NC(=O)[C@H](C)NC(=O)[C@H](C)NC(=O)[C@@H](NC(=O)[C@H](CO)NC(=O)[C@H](CC(C)C)NC(=O)[C@H](CCC(N)=O)NC(=O)[C@H](CO)NC(=O)[C@H](C)NC(=O)CC[C@H](NC(=O)CCCCCCCCCCCCCCCCCCC(=O)O)C(=O)O)[C@@H](C)O)[C@@H](C)O)C(=O)N[C@@H](CC(C)C)C(=O)N1CCC[C@H]1C(=O)N1CCC[C@H]1C(=O)N[C@H](C(=O)N[C@@H](CC(N)=O)C(=O)N[C@H](C(=O)NCC(=O)N[C@@H](CO)C(=O)N[C@@H](CC(N)=O)C(=O)N[C@H](C(=O)N1C[C@H](O)C[C@H]1C(N)=O)[C@@H](C)O)C(C)C)[C@@H](C)O [M50] ({C20 diacid-γGlu}-ASQLSTAATQRLADFLRHSSANLKPILPPTNVGSNT[Hyp]-NH2) | 186 | 10.15 | 7.76 | 14.46

The next lines start with the values.

Row | Relative activity [1] [%] | pEC50 [1] | Reduction in purity, 10 d [2] [%] | Reduction in purity, 20 d [2] [%] | Structure (SMILES)
5 | 150 | 10.22 | 8.69 | – | CC[C@H](C)[C@H](NC(=O)[C@@H]1CCCN1C(=O)[C@H](CCCCN)NC(=O)[C@H](CC(C)C)NC(=O)[C@H](CC(N)=O)NC(=O)[C@H](CCC(N)=O)NC(=O)[C@H](CO)NC(=O)[C@H](CO)NC(=O)[C@H](Cc1c[nH]cn1)NC(=O)[C@H](CCCNC(=N)N)NC(=O)[C@H](CC(C)C)NC(=O)[C@H](Cc1ccccc1)NC(=O)[C@H](CC(=O)O)NC(=O)[C@H](C)NC(=O)[C@H](CC(C)C)NC(=O)[C@H](CCCNC(=N)N)NC(=O)[C@H](CCC(N)=O)NC(=O)[C@@H](NC(=O)[C@H](C)NC(=O)[C@H](C)NC(=O)[C@@H](NC(=O)[C@H](CO)NC(=O)[C@H](CC(C)C)NC(=O)[C@H](CCC(N)=O)NC(=O)[C@H](CO)NC(=O)[C@H](C)NC(=O)CC[C@H](NC(=O)CCCCCCCCCCCCCCCCCCC(=O)O)C(=O)O)[C@@H](C)O)[C@@H](C)O)C(=O)N[C@@H](CC(C)C)C(=O)N1CCC[C@H]1C(=O)N1CCC[C@H]1C(=O)N[C@H](C(=O)N[C@@H](CC(N)=O)C(=O)N[C@H](C(=O)NCC(=O)N[C@@H](CO)C(=O)N[C@@H](CC(N)=O)C(=O)N[C@H](C(=O)N1C[C@H](O)C[C@H]1C(N)=O)[C@@H](C)O)C(C)C)[C@@H](C)O [M46] ({C20 diacid-γGlu}-ASQLSTAATQRLADFLRHSSQNLKPILPPTNVGSNT[Hyp]-NH2)
6 | 113 | 10.10 | 9.25 | – | CC[C@H](C)[C@H](NC(=O)[C@@H]1CCCN1C(=O)[C@H](CCCCN)NC(=O)[C@H](CC(C)C)NC(=O)[C@H](CC(N)=O)NC(=O)[C@H](CCC(=O)O)NC(=O)[C@H](CO)NC(=O)[C@H](CO)NC(=O)[C@H](Cc1c[nH]cn1)NC(=O)[C@H](CCCNC(=N)N)NC(=O)[C@H](CC(C)C)NC(=O)[C@H](Cc1ccccc1)NC(=O)[C@H](CC(=O)O)NC(=O)[C@H](C)NC(=O)[C@H](CC(C)C)NC(=O)[C@H](CCCNC(=N)N)NC(=O)[C@H](CCC(N)=O)NC(=O)[C@@H](NC(=O)[C@H](C)NC(=O)[C@H](C)NC(=O)[C@@H](NC(=O)[C@H](CO)NC(=O)[C@H](CC(C)C)NC(=O)[C@H](CCC(N)=O)NC(=O)[C@H](CO)NC(=O)[C@H](C)NC(=O)CC[C@H](NC(=O)CCCCCCCCCCCCCCCCCCC(=O)O)C(=O)O)[C@@H](C)O)[C@@H](C)O)C(=O)N[C@@H](CC(C)C)C(=O)N1CCC[C@H]1C(=O)N1CCC[C@H]1C(=O)N[C@H](C(=O)N[C@@H](CC(N)=O)C(=O)N[C@H](C(=O)NCC(=O)N[C@@H](CO)C(=O)N[C@@H](CC(N)=O)C(=O)N[C@H](C(=O)N1C[C@H](O)C[C@H]1C(N)=O)[C@@H](C)O)C(C)C)[C@@H](C)O [M47] ({C20 diacid-γGlu}-ASQLSTAATQRLADFLRHSSENLKPILPPTNVGSNT[Hyp]-NH2)
